According to article PMC9524151, “Peptides derived from hookworm anti-inflammatory proteins suppress inducible colitis in mice and inflammatory cytokine production by human cells” (Frontiers in Medicine, 2022):
Ends that are not written are not given here.

Assays:
TNBS-induced colitis = assay: TNBS colitis model, oral administration; conditions: oral 5 mg/kg; compared with vehicle treated mice
in vitro = conditions: male, human, human serum
[1] = 100% human serum, 37°C, RP-HPLC at 214 nm, triplicate; for relative rate of degradation in human serum over 24 h: 0, 3, 8, 24 h

Compound | remaining at 4 h, 20 μM (in vitro) | relative rate of degradation in human serum over 24 h [1] | further results
O=C(O)c1cc(/N=N/c2ccc(S(=O)(=O)Nc3ccccn3)cc2)ccc1O [sulfasalazine] | – | – | colon length after oral administration (TNBS-induced colitis): Neither ES2-10 nor sulfasalazine were distinct from the vehicle treated mice
PSKEKADLGKYKA [AIP1-13] | < 10% | – | –
SQKEKDLLKE [ES2-10] | < 10% | – | –
TPEEHDLLMDLMGDPKKAEE [AIP2-20] | – | degraded slower than AIP1-13 and ES2-10 | detection of peptide in human serum after 24 h [1]: could still be detected after 24 h; remaining at 8 h, 20 μM (in vitro): > 50%
TPEEHPLLMDLMGDPKKAEE [AIP2-20D6P] | – | degraded slower than AIP1-13 and ES2-10 but was less stable than AIP2-20 | –
